Legend:
Assay type in all cases: in vivo
Conditions in all cases: active ingredient amount 31 g/ha, 14th day after application
[1] = system: barnyardgrass (Echinochloa crus-qalli L.); assay: Test Example 1: foliar treatment, growth inhibition rate on 14th day
Procedure, shortened: (§1)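 Using a small sprayer, formulated compound in water (0.1 vol % surfactant, 1,000 L/ha) was applied to seedlings grown from seed in upland soil. Fourteen days on, growth state was observed and expressed as percent inhibition from 0 to 100.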

corn (Zea mays L.) [2] = assay: as above
Procedure, shortened: as §1

[3] = system: crabgrass (Digitaria sanquinalis L.); assay: as above
Procedure, shortened: as §1

[4] = system: green foxtail (Setaria viridis L.); assay: as above
Procedure, shortened: (§2)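 Compounds applied once to leaves of pot-grown plants; wild oat at 0.4–1.2 leaf, foxtail 0.5–3.2, rice 0.2–2.7, soybean primary leaf. Inhibition estimated by eye on day 14.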

[5] = system: italian ryegrass (Lolium multiflorum Lam.); assay: as above
Procedure, shortened: as §1

[6] = system: redroot pigweed (Amaranthus retroflexus L.); assay: as above
Procedure, shortened: as §1

rice (Oryza sativa L.) [7] = assay: as above
Procedure, shortened: as §2

[8] = system: soybean (Glycine max Merr.); assay: as above
Procedure, shortened: as §2

[9] = system: wheat (Triticum aestivum L.); assay: as above
Procedure, shortened: as §1

[10] = system: wild oat (Avena fatua L.); assay: as above
Procedure, shortened: as §2

[11] = system: barnyardgrass (Echinochloa crus-qalli L.); assay: Test Example 2: soil application on the day after sowing, growth inhibition rate on 14th day
Description: (§3) Upland field soil was put into a 1/300,000 hectare pot, and seeds of various plants (barnyardgrass (Echinochloa crus-qalli L.), crabgrass (Digitaris sanquinalis L.), green foxtail (Setaria viridis L.), redroot pigweed (Amaranthus retroflexus L.), prickly sida (Sida spinosa L.), velvetleaf (Abutilon theophrasti MEDIC.), rice (Oryza sativa L.), corn (Zea mays L.), wheat (Triticum aestivum L.), soybean (Glycine max Merr.)) were sown. On the day after sowing, wettable powders or emulsifiable concentrates of the compounds of the present invention prepared in accordance with a conventional preparation method, were weighed so as to achieve the prescribed active ingredient amounts, and diluted with water in an amount corresponding to 1,000 liters per 1 hectare, followed by soil application by a small sprayer.
(§4) On the 14th day after the application, the state of growth of the respective plants was visually observed, and the herbicidal effect was evaluated by a growth inhibition rate (%) of 0 (equivalent to the non-treated area) to 100 (complete kill).

corn (Zea mays L.) [12] = assay: as above
Description: as §3, §4

[13] = system: crabgrass (Digitaris sanquinalis L.); assay: as above
Description: as §3, §4

[14] = system: green foxtail (Setaria viridis L.); assay: as above
Description: as §3, §4

[15] = system: prickly sida (Sida spinosa L.); assay: as above
Description: as §3, §4

[16] = system: redroot pigweed (Amaranthus retroflexus L.); assay: as above
Description: as §3, §4

rice (Oryza sativa L.) [17] = assay: as above
Description: as §3, §4

[18] = system: soybean (Glycine max Merr.); assay: as above
Description: as §3, §4

[19] = system: velvetleaf (Abutilon theophrasti MEDIC.); assay: as above
Description: as §3, §4

[20] = system: wheat (Triticum aestivum L.); assay: as above
Description: as §3, §4

[21] = visual, 0 = non-treated, 100 = complete kill

SMILES: Cc1ccc(Oc2cnc3cc(Cl)ccc3n2)cc1-c1c(OC(=O)COc2ccccc2)c(C)nn(C)c1=O [Compound 3-48]
- Growth inhibition rate (%) Barnyardgrass [1, 21]: 100%
- Growth inhibition rate (%) Corn (corn (Zea mays L.) [2]; [21]): 25%
- Growth inhibition rate (%) Crabgrass [3, 21]: 98%
- Growth inhibition rate (%) Green foxtail [4, 21]: 100%
- Growth inhibition rate (%) Italian ryegrass [5, 21]: 95%
- Growth inhibition rate (%) Redroot pigweed [6, 21]: 0%
- Growth inhibition rate (%) Rice (rice (Oryza sativa L.) [7]; [21]): 0%
- Growth inhibition rate (%) Soybean [8, 21]: 10%
- Growth inhibition rate (%) Wheat [9, 21]: 90%
- Growth inhibition rate (%) Wild oat [10, 21]: 75%
- Growth inhibition rate (%) Barnyardgrass [11]: 98%
- Growth inhibition rate (%) Corn (corn (Zea mays L.) [12]): 0%
- Growth inhibition rate (%) Crabgrass [13]: 60%
- Growth inhibition rate (%) Green foxtail [14]: 100%
- Growth inhibition rate (%) Prickly sida [15]: 0%
- Growth inhibition rate (%) Redroot pigweed [16]: 0%
- Growth inhibition rate (%) Rice (rice (Oryza sativa L.) [17]): 0%
- Growth inhibition rate (%) Soybean [18]: 0%
- Growth inhibition rate (%) Velvetleaf [19]: 0%
- Growth inhibition rate (%) Wheat [20]: 20%

SMILES: CCc1ccc(Oc2ncc(C(F)(F)F)cc2Cl)cc1-c1c(O)c(C)nn(C)c1=O [1-3]
- Growth inhibition rate (%) Barnyardgrass [1]: 100%
- Growth inhibition rate (%) Corn (corn (Zea mays L.) [2]): 99%
- Growth inhibition rate (%) Crabgrass [3]: 99%
- Growth inhibition rate (%) Green foxtail [4]: 100%
- Growth inhibition rate (%) Italian ryegrass [5]: 98%
- Growth inhibition rate (%) Redroot pigweed [6]: 0%
- Growth inhibition rate (%) Rice (rice (Oryza sativa L.) [7]): 75%
- Growth inhibition rate (%) Soybean [8]: 15%
- Growth inhibition rate (%) Wheat [9]: 15%
- Growth inhibition rate (%) Wild oat [10]: 98%
- Growth inhibition rate (%) Barnyardgrass [11]: 100%
- Growth inhibition rate (%) Corn (corn (Zea mays L.) [12]): 90%
- Growth inhibition rate (%) Crabgrass [13]: 100%
- Growth inhibition rate (%) Green foxtail [14]: 100%
- Growth inhibition rate (%) Prickly sida [15]: 0%
- Growth inhibition rate (%) Redroot pigweed [16]: 0%
- Growth inhibition rate (%) Rice (rice (Oryza sativa L.) [17]): 80%
- Growth inhibition rate (%) Soybean [18]: 0%
- Growth inhibition rate (%) Velvetleaf [19]: 0%
- Growth inhibition rate (%) Wheat [20]: 35%

SMILES: CC(=O)Oc1c(C)nn(C)c(=O)c1-c1cc(Oc2ccc(C(F)(F)F)cn2)ccc1C [Compound 2-61]
- Growth inhibition rate (%) Barnyardgrass [1]: 99%
- Growth inhibition rate (%) Corn (corn (Zea mays L.) [2]): 95%
- Growth inhibition rate (%) Crabgrass [3]: 78%
- Growth inhibition rate (%) Green foxtail [4]: 95%
- Growth inhibition rate (%) Italian ryegrass [5]: 93%
- Growth inhibition rate (%) Redroot pigweed [6]: 0%
- Growth inhibition rate (%) Rice (rice (Oryza sativa L.) [7]): 90%
- Growth inhibition rate (%) Soybean [8]: 0%
- Growth inhibition rate (%) Wheat [9]: 95%
- Growth inhibition rate (%) Wild oat [10]: 98%
- Growth inhibition rate (%) Barnyardgrass [11]: 65%
- Growth inhibition rate (%) Corn (corn (Zea mays L.) [12]): 0%
- Growth inhibition rate (%) Crabgrass [13]: 50%
- Growth inhibition rate (%) Green foxtail [14]: 98%
- Growth inhibition rate (%) Prickly sida [15]: 0%
- Growth inhibition rate (%) Redroot pigweed [16]: 0%
- Growth inhibition rate (%) Rice (rice (Oryza sativa L.) [17]): 0%
- Growth inhibition rate (%) Soybean [18]: 0%
- Growth inhibition rate (%) Velvetleaf [19]: 0%
- Growth inhibition rate (%) Wheat [20]: 0%

SMILES: Cc1ccc(Oc2ncc(C(F)(F)F)cc2C(F)(F)F)cc1-c1c(O)c(C)nn(C)c1=O [Compound 2-84]
- Growth inhibition rate (%) Barnyardgrass [1]: 99%
- Growth inhibition rate (%) Corn (corn (Zea mays L.) [2]): 90%
- Growth inhibition rate (%) Crabgrass [3]: 100%
- Growth inhibition rate (%) Green foxtail [4]: 100%
- Growth inhibition rate (%) Italian ryegrass [5]: 93%
- Growth inhibition rate (%) Redroot pigweed [6]: 0%
- Growth inhibition rate (%) Rice (rice (Oryza sativa L.) [7]): 0%
- Growth inhibition rate (%) Soybean [8]: 0%
- Growth inhibition rate (%) Wheat [9]: 0%
- Growth inhibition rate (%) Wild oat [10]: 99%
- Growth inhibition rate (%) Barnyardgrass [11]: 100%
- Growth inhibition rate (%) Corn (corn (Zea mays L.) [12]): 0%
- Growth inhibition rate (%) Crabgrass [13]: 100%
- Growth inhibition rate (%) Green foxtail [14]: 100%
- Growth inhibition rate (%) Prickly sida [15]: 0%
- Growth inhibition rate (%) Redroot pigweed [16]: 0%
- Growth inhibition rate (%) Rice (rice (Oryza sativa L.) [17]): 60%
- Growth inhibition rate (%) Soybean [18]: 0%
- Growth inhibition rate (%) Velvetleaf [19]: 0%
- Growth inhibition rate (%) Wheat [20]: 0%

SMILES: CCc1ccc(Oc2nc3ccccc3o2)cc1-c1c(O)c(C)nn(C)c1=O [Compound 2-166]
- Growth inhibition rate (%) Barnyardgrass [1]: 100%
- Growth inhibition rate (%) Corn (corn (Zea mays L.) [2]): 80%
- Growth inhibition rate (%) Crabgrass [3]: 88%
- Growth inhibition rate (%) Green foxtail [4]: 100%
- Growth inhibition rate (%) Italian ryegrass [5]: 99%
- Growth inhibition rate (%) Redroot pigweed [6]: 20%
- Growth inhibition rate (%) Rice (rice (Oryza sativa L.) [7]): 88%
- Growth inhibition rate (%) Soybean [8]: 30%
- Growth inhibition rate (%) Wheat [9]: 10%
- Growth inhibition rate (%) Wild oat [10]: 40%
- Growth inhibition rate (%) Barnyardgrass [11]: 99%
- Growth inhibition rate (%) Corn (corn (Zea mays L.) [12]): 0%
- Growth inhibition rate (%) Crabgrass [13]: 95%
- Growth inhibition rate (%) Green foxtail [14]: 100%
- Growth inhibition rate (%) Prickly sida [15]: 0%
- Growth inhibition rate (%) Redroot pigweed [16]: 0%
- Growth inhibition rate (%) Rice (rice (Oryza sativa L.) [17]): 70%
- Growth inhibition rate (%) Soybean [18]: 0%
- Growth inhibition rate (%) Velvetleaf [19]: 0%
- Growth inhibition rate (%) Wheat [20]: 0%

SMILES: CCc1nn(C)c(=O)c(-c2cc(Oc3nc4ccc(Cl)cc4o3)ccc2C)c1O [Compound 2-89]
- Growth inhibition rate (%) Barnyardgrass [1]: 95%
- Growth inhibition rate (%) Corn (corn (Zea mays L.) [2]): 30%
- Growth inhibition rate (%) Crabgrass [3]: 65%
- Growth inhibition rate (%) Green foxtail [4]: 93%
- Growth inhibition rate (%) Italian ryegrass [5]: 20%
- Growth inhibition rate (%) Redroot pigweed [6]: 0%
- Growth inhibition rate (%) Rice (rice (Oryza sativa L.) [7]): 10%
- Growth inhibition rate (%) Soybean [8]: 20%
- Growth inhibition rate (%) Wheat [9]: 0%
- Growth inhibition rate (%) Wild oat [10]: 0%
- Growth inhibition rate (%) Barnyardgrass [11]: 95%
- Growth inhibition rate (%) Corn (corn (Zea mays L.) [12]): 0%
- Growth inhibition rate (%) Crabgrass [13]: 30%
- Growth inhibition rate (%) Green foxtail [14]: 50%
- Growth inhibition rate (%) Prickly sida [15]: 0%
- Growth inhibition rate (%) Redroot pigweed [16]: 0%
- Growth inhibition rate (%) Rice (rice (Oryza sativa L.) [17]): 30%
- Growth inhibition rate (%) Soybean [18]: 0%
- Growth inhibition rate (%) Velvetleaf [19]: 0%
- Growth inhibition rate (%) Wheat [20]: 0%

SMILES: Cc1nn(C)c(=O)c(-c2cc(Oc3nc4ccc(Cl)cc4o3)ccc2OC(F)(F)F)c1O [Compound 2-175]
- Growth inhibition rate (%) Barnyardgrass [1]: 98%
- Growth inhibition rate (%) Corn (corn (Zea mays L.) [2]): 95%
- Growth inhibition rate (%) Crabgrass [3]: 98%
- Growth inhibition rate (%) Green foxtail [4]: 99%
- Growth inhibition rate (%) Italian ryegrass [5]: 50%
- Growth inhibition rate (%) Redroot pigweed [6]: 0%
- Growth inhibition rate (%) Rice (rice (Oryza sativa L.) [7]): 0%
- Growth inhibition rate (%) Soybean [8]: 10%
- Growth inhibition rate (%) Wheat [9]: 0%
- Growth inhibition rate (%) Wild oat [10]: 10%
- Growth inhibition rate (%) Barnyardgrass [11]: 100%
- Growth inhibition rate (%) Corn (corn (Zea mays L.) [12]): 30%
- Growth inhibition rate (%) Crabgrass [13]: 95%
- Growth inhibition rate (%) Green foxtail [14]: 99%
- Growth inhibition rate (%) Prickly sida [15]: 0%
- Growth inhibition rate (%) Redroot pigweed [16]: 0%
- Growth inhibition rate (%) Rice (rice (Oryza sativa L.) [17]): 90%
- Growth inhibition rate (%) Soybean [18]: 0%
- Growth inhibition rate (%) Velvetleaf [19]: 0%
- Growth inhibition rate (%) Wheat [20]: 0%

SMILES: CCc1ccc(Sc2ncc(C(F)(F)F)cc2Cl)cc1-c1c(O)c(C)nn(C)c1=O [1-4]
- Growth inhibition rate (%) Barnyardgrass [1]: 99%
- Growth inhibition rate (%) Corn (corn (Zea mays L.) [2]): 93%
- Growth inhibition rate (%) Crabgrass [3]: 95%
- Growth inhibition rate (%) Green foxtail [4]: 100%
- Growth inhibition rate (%) Italian ryegrass [5]: 95%
- Growth inhibition rate (%) Redroot pigweed [6]: 10%
- Growth inhibition rate (%) Rice (rice (Oryza sativa L.) [7]): 20%
- Growth inhibition rate (%) Soybean [8]: 35%
- Growth inhibition rate (%) Wheat [9]: 10%
- Growth inhibition rate (%) Wild oat [10]: 99%
- Growth inhibition rate (%) Barnyardgrass [11]: 100%
- Growth inhibition rate (%) Corn (corn (Zea mays L.) [12]): 0%
- Growth inhibition rate (%) Crabgrass [13]: 99%
- Growth inhibition rate (%) Green foxtail [14]: 98%
- Growth inhibition rate (%) Prickly sida [15]: 0%
- Growth inhibition rate (%) Redroot pigweed [16]: 0%
- Growth inhibition rate (%) Rice (rice (Oryza sativa L.) [17]): 40%
- Growth inhibition rate (%) Soybean [18]: 0%
- Growth inhibition rate (%) Velvetleaf [19]: 0%
- Growth inhibition rate (%) Wheat [20]: 0%
